Experimental data from patent publication US9035056B2, “Pyrido[4,3-b]indole and pyrido[3,4-b]indole derivatives and methods of use” (Medivation Technologies, Inc., priority 2011, dated 2015).

Assays:
[1] = biological target: T1, human recombinant adrenergic α2C receptor (Homo sapiens, UniProt P18825); test: Adrenergic α2C radioligand binding ([3H]MK-912); conditions: 0.1 μM compound; read-out: Percentage inhibition of ligand binding, Adrenergic α2C
T1 construct: expressed in transfected cells; host or cells: insect Sf9 cells
T1 sequence (P18825 1-462): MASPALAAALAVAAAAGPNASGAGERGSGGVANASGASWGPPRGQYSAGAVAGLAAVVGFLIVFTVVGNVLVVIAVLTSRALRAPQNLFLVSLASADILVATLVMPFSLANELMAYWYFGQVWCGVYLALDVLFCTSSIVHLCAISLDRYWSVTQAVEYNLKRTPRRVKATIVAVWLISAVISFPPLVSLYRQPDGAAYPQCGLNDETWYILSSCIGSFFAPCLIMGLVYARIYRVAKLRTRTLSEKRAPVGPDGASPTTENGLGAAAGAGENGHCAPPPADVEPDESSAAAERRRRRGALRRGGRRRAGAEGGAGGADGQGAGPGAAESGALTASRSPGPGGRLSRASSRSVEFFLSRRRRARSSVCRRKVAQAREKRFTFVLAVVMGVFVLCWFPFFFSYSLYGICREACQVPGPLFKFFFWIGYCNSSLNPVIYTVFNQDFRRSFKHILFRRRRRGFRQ
Experimental: To evaluate in radioligand binding assays the activity of compounds of the invention, human recombinant adrenergic α2C receptor expressed in insect Sf9 cells (Uhlen, S. et al, J. Pharmacol. Exp. Ther. 271:1558, 1994) in a modified Tris-HCl buffer (50 mM Tris-HCl, pH 7.4, 12.5 mM MgCl2, 2 mM EDTA) was used. Compounds of the invention were incubated with 1 nM [^3H]MK-912 for 60 min at 25° C. Non-specific binding was estimated in the presence of 10 μM WB-4101. Receptor proteins were filtered and washed, the filters were then counted to determine [^3H]MK-912 specifically bound. Compounds were screened at 1 μM or lower, using 1% DMSO as vehicle. Biochemical assay results are presented as the percent inhibition of specific binding in Table 3.

[2] = biological target: T2, human recombinant serotonin (5-Hydroxytryptamine) 5-HT6 receptor (Homo sapiens, UniProt P50406); test: Serotonin 5-HT6 radioligand binding ([3H]LSD); conditions: 0.1 μM compound; read-out: Percentage inhibition of ligand binding, Serotonin 5-HT6
T2 construct: expressed in transfected cells; host or cells: HeLa
Experimental: To evaluate in radioligand binding assays the activity of compounds of the invention, human recombinant serotonin (5-Hydroxytryptamine) 5-HT6 receptor expressed in human HeLa cells (Monsma, F. Jr. et al, Mol. Pharmacol. 43:320, 1993) in a modified Tris-HCl buffer (50 mM Tris-HCl, pH 7.4, 150 mM NaCl, 2 mM Ascorbic Acid, 0.001% BSA) was used. Compounds of the invention were incubated with 1.5 nM [3H]Lysergic acid diethylamide (LSD) for 120 min at 37° C. Non-specific binding was estimated in the presence of 5 μM Serotonin (5-HT). Receptor proteins were filtered and washed, the filters were then counted to determine [3H]LSD specifically bound. Compounds were screened at 1 μM or lower, using 1% DMSO as vehicle. Biochemical assay results are presented as the percent inhibition of specific binding in Table 5.

T2 sequence (P50406 whole entry): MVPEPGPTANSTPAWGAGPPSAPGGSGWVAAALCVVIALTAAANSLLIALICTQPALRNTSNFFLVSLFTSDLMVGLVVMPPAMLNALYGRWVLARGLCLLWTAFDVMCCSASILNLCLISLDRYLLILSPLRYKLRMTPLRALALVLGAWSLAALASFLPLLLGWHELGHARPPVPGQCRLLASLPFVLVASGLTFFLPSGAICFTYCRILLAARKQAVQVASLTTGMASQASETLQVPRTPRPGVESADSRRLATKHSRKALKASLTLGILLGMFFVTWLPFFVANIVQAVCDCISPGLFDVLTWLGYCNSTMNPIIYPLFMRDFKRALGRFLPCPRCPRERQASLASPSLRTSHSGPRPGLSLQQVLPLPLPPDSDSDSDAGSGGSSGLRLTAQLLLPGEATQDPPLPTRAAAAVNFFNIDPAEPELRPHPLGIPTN

Row | Structure (SMILES) | inhibition at 0.1 µM [1] [%] | inhibition at 0.1 µM [2] [%]
1 | Cc1ccc2c(c1)c1c(n2/C=C2/CCCc3ccccc32)CCN(C)C1 [i-2] | 90 | 102
2 | Cc1ccc2c(c1)c1c(n2/C=C2\CCCc3ccccc32)CCN(C)C1 [i-3] | 72 | 83
